Assays:
Format in all cases: functional
Rattus norvegicus [1] = test: Reduction of serum creatinine level in alloxan-induced diabetic Wistar rat model at 36 mg/kg, po administered once daily for 15 days measured on day 18
Rattus norvegicus [2] = test: Reduction of liver GPT level in alloxan-induced diabetic Wistar rat model assessed per mg of protein at 36 mg/kg, po administered once daily for 15 days measured on day 18
Rattus norvegicus [3] = test: Antidiabetic activity in alloxan-induced diabetic Wistar rat model assessed as reduction in blood glucose level at 36 mg/kg, po administered once daily for 15 days measured after 1 hr postdose
Rattus norvegicus [4] = test: Reduction of liver ALP level in alloxan-induced diabetic Wistar rat model at 36 mg/kg, po administered once daily for 15 days measured on day 18
Rattus norvegicus [5] = test: Reduction of serum GPT level in alloxan-induced diabetic Wistar rat model at 36 mg/kg, po administered once daily for 15 days measured on day 18
Rattus norvegicus [6] = test: Antidiabetic activity in alloxan-induced diabetic Wistar rat model assessed as reduction in blood glucose level at 36 mg/kg, po administered once daily for 15 days measured after 6 hrs postdose
Rattus norvegicus [7] = test: Antidiabetic activity in alloxan-induced diabetic Wistar rat model assessed as reduction in blood glucose level at 36 mg/kg, po administered once daily for 15 days measured after 3 hrs postdose
Rattus norvegicus [8] = test: Reduction of blood urea nitrogen level in alloxan-induced diabetic Wistar rat model at 36 mg/kg, po administered once daily for 15 days measured on day 18

Row | Structure (SMILES) | Activity (Rattus norvegicus [1]) | Activity (Rattus norvegicus [2]) | Activity (Rattus norvegicus [3]) | Activity (Rattus norvegicus [4]) | Activity (Rattus norvegicus [5]) | Activity (Rattus norvegicus [6]) | Activity (Rattus norvegicus [7]) | Activity (Rattus norvegicus [8])
1 | Cc1ccc([C@H]2CN(C)[C@@]3(C(=O)Nc4ccccc43)[C@@]23SC(=O)NC3=O)cc1 | 1.8 mg/dL | 558 U/mg protein | 140.5 mg/dL | 38.3 KA/dl | 129.8 U/ml | 125.5 mg/dL | 136.5 mg/dL | 37.5 mg/dL
2 | CN1C[C@H](c2ccc(F)c(F)c2)[C@]2(SC(=O)NC2=S)[C@]12C(=O)Nc1ccccc12 | 1.5 mg/dL | 626 U/mg protein | 137.5 mg/dL | 37 KA/dl | 137.5 U/ml | 106.5 mg/dL | 112.8 mg/dL | 38.5 mg/dL
3 | CN1C[C@H](c2ccc(F)c(F)c2)[C@]2(SC(=O)NC2=O)[C@]12C(=O)Nc1ccccc12 | 2.1 mg/dL | 582 U/mg protein | 134.5 mg/dL | 41.3 KA/dl | 132 U/ml | 115.3 mg/dL | 123.5 mg/dL | 35 mg/dL
4 | COc1ccc([C@H]2CN(C)[C@@]3(C(=O)Nc4ccccc43)[C@@]23SC(=O)NC3=S)cc1OC | 2.2 mg/dL | 576 U/mg protein | 140.5 mg/dL | 42.3 KA/dl | 121 U/ml | 95.8 mg/dL | 106.5 mg/dL | 35.5 mg/dL
5 | CN1C[C@H](c2ccc(O)c(O)c2)[C@]2(SC(=O)NC2=S)[C@]12C(=O)Nc1ccccc12 | 2 mg/dL | 646 U/mg protein | 175.5 mg/dL | 43.8 KA/dl | 142.8 U/ml | 120.5 mg/dL | 158.5 mg/dL | 39 mg/dL
6 | COc1ccc([C@H]2CN(C)[C@@]3(C(=O)Nc4ccccc43)[C@@]23SC(=O)NC3=O)cc1OC | 1.8 mg/dL | 698 U/mg protein | 133.5 mg/dL | 48.5 KA/dl | 140.5 U/ml | 115.8 mg/dL | 123.8 mg/dL | 41.8 mg/dL
